Measured values as given in publication PMC5228037, “Discovery and Mechanistic Characterization of Selective Inhibitors of H2S-producing Enzyme: 3-Mercaptopyruvate Sulfurtransferase (3MST) Targeting Active-site Cysteine Persulfide” (Scientific Reports, 2017).

Assays:
[1] = target: T1, recombinant CSE (Rattus norvegicus, UniProt P18757); assay: Inhibitory activity towards purified CSE by gas chromatography; assay type: biochemical; settings: 100 μM compound, 10 mM L-cysteine
T1 construct: GST (N, cleaved yes); made in house; host or cells: E. coli DH5α
Protocol: Figure 2 Selectivity assessment of hit compounds for 3MST over other H2S/polysulfides-producing enzymes and rhodanese. (a) 3MST-Inhibitory activity of hit compounds at 10 and 100 μM in cell lysate of 3MST-expressing HEK293 cells. 100 μM 3MP and 100 μM DTT were added to the solution containing 0.1% DMSO as a cosolvent, and the mixture was incubated at 37 °C for 15 min. H2S production was measured by gas chromatography. All data are presented as the mean ± S.D. (100 μM: n = 3 or 4; 10 μM: n = 3). (b) Selectivity assessment of hit compounds at 100 μM towards CBS and CSE. Only DMSO was added to the control sample instead of DMSO solution containing hit compounds. H2S production was monitored by gas chromatography. All data are presented as the mean (n = 3). (c) Detection method for rhodanese activity (Sörbo method). (d) Selectivity assessment of hit compounds towards rhodanese. The results are mean ± S.D. (n = 4, three times). These values were determined based upon the absorbance of [Fe(SCN)3] at 460 nm (Sӧrbo method). Bovine rhodanese 1.3–1.7 units/mL, substrate: 52 mM Na2S2O3, 50 mM KCN, 0.004% (w/v) BSA, 100 μM compound and DMSO 1% (v/v) in 88 mM potassium phosphate buffer (pH 8.6) at room temperature for 5 min incubation. (e) Fluorescence confocal microscopic images of live COS7 cells transfected with 3MST or an empty vector[9] as a control. Cells were incubated with 50 μM SSP4, a fluorescent probe for sulfane sulfur, and 10 μM, 1 μM, 0.5 μM, 0.1 or 0 μM compound 3 in DMEM containing 0.6% DMSO for 30 min, then washed with HBSS and placed in fresh DMEM with 0‒10 μM compound 3 (Pre). 500 μM 3MP was added to the cells and the cells were incubated for 10 min (10 min). (f) Graphic representation of (e). F/F0 was calculated by dividing the fluorescence intensity of cells after addition of 500 μM 3MP (10 min) by that of cells before addition of 500 μM 3MP (Pre), then the mean F/F0 was determined from 5 cells. All data represent the mean ± standard error of the mean (SEM) of three experiments.
GST-tagged rat CSE-HA or rat CBS-HA was expressed in E. coli DH5α as follows. […]

[2] = target: T2, GST-fused m3MST (GST-3MST) (Mus musculus, UniProt Q99J99); assay: 3MST inhibitor screening with H2S fluorescent probe HSip-1 (confirmation test, titration test); assay type: biochemical; settings: HSip-1 fluorescence, room temperature 3 hr; for inhibition at 10 µM: 10 μM compound, 50 μM 3MP, 40 μM DTT, mean±S.D. n = 4; for IC50: 0.25, 1, 3, 10, 30 μM compound, 3MP and DTT, read-out: IC50 of 3MST inhibition (titration test)
T2 construct: made in house; host or cells: E. coli BL21
T2 sequence (Q99J99 1-297): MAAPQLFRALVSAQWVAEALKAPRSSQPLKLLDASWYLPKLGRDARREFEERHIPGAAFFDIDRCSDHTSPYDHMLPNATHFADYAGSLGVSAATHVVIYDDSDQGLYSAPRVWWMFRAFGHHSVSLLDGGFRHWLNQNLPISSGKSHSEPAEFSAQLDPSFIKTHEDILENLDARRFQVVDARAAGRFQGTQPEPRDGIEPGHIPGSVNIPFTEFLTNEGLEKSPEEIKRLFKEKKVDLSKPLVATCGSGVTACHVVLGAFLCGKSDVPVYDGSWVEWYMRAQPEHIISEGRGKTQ

inhibition at 100 µM ([1]; read-out: Inhibition of recombinant CSE enzymatic activity (H2S production)) [%]	inhibition at 10 µM [2] [%]	IC50 [2] [µM]	Inhibition of recombinant CSE enzymatic activity (H2S production) [1]	Structure (SMILES)
~25	102.8 ± 0.2	1.7	–	NC(=O)c1ccsc1NC(=O)CSc1nc2ccccc2c(=O)[nH]1 [compound 1]
–	81.7 ± 2.5	6.3	enhanced H2S production	Cc1sc2nc(SCC(=O)c3ccc(O)cc3O)[nH]c(=O)c2c1C [compound 2]
–	102 ± 2.9	2.7	almost inactive	Cc1cc(=O)[nH]c(SCC(=O)c2cccc3ccccc23)n1 [compound 3]
–	95.5 ± 3.4	5.7	–	O=C(O)c1cccc(NS(=O)(=O)c2ccccc2)c1 [compound 5]
